According to ChEMBL document CHEMBL1131462, “Quantitative analysis of the structural requirements for blockade of the N-methyl-D-aspartate receptor at the phencyclidine binding site” (J Med Chem, 1998):

Target: Glutamate [NMDA] receptor
Test: The compound was tested for its ability to block PCP N-methyl-D-aspartate glutamate receptor at the PCP (phencyclidine) binding site in postmortem human frontal cortex.

Row | Compound | Ki
1 | NCCCC12CC3CC(CC(C3)C1)C2 | 9.5 µM
2 | CN(C)C12CC3CC(C)(CC(C)(C3)C1)C2 | 4.44 µM
3 | CC12CC3CC(C)(C1)CC(CCN)(C3)C2 | 0.79 µM
4 | CCC12CC3CC(N)(C1)CC(c1ccccc1)(C3)C2 (stereo not drawn) | 4.08 µM
5 | CN(C)C12CC3CC(CC(C3)C1)C2 | 20.8 µM
6 | CCNC12CC3CC(C)(CC(C)(C3)C1)C2 | 1.72 µM
7 | CCC12CC3CC(CC(N)(C3)C1)C2 | 0.6 µM
8 | CC(C)C12CC3CC(CC(N)(C3)C1)C2 | 7.21 µM
9 | NCC12CC3CC(CC(C3)C1)C2 | 33.3 µM
10 | CNC12CC3CC(C)(CC(C)(C3)C1)C2 | 1.61 µM
11 | NC12CC3CC(C1)CC(c1ccccc1)(C3)C2 | 15.2 µM
12 | NCCC12CC3CC(CC(C3)C1)C2 | 3.8 µM
13 | CCC12CC3CC(N)(C1)CC(CC)(C3)C2 | 0.19 µM
14 | NCCCCC12CC3CC(CC(C3)C1)C2 | 17.4 µM
15 | CNC12CC3CC(CC(C3)C1)C2 | 21.7 µM
16 | CNC1(c2ccccc2Cl)CCCCC1=O (racemic) [KETAMINE] | 0.42 µM
17 | OC(CCN1CCCC1)(c1ccccc1)C1CCCCC1 (racemic) [PROCYCLIDINE] | 1.7 µM
18 | NC12CC3CC(CC(C3)C1)C2 [AMANTADINE] | 10.5 µM
19 | CC(C)(C)N1CCC(c2ccccc2)(c2ccccc2)CC1 [BUDIPINE] | 11.7 µM
20 | COc1ccc2c(c1)[C@]13CCCC[C@@H]1[C@H](C2)N(C)CC3 [DEXTROMETHORPHAN] | 1.68 µM
21 | CN1CC[C@@]23CCCC[C@@H]2[C@@H]1Cc1ccc(O)cc13 [DEXTRORPHAN] | 0.22 µM
22 | Cc1ccccc1C(OCCN(C)C)c1ccccc1 (stereo not drawn) [ORPHENADRINE] | 6 µM
23 | c1ccc(C2(N3CCCCC3)CCCCC2)cc1 [PHENCYCLIDINE] | 0.023 µM
